The values below come from patent publication US20180353460A1, “METHODS OF TREATING UROLOGICAL DISORDERS USING SARMs” (priority 2014, published 2018).

Assay [1] has as its system postmenopausal women with SUI. In words: Proof of concept clinical study: stress leaks per day by 3 day voiding diary. The assay is classed as in vivo, human. The method, then:
This was initially a single site, proof of concept feasibility study to describe the effect of the S-isomer of the compound of Formula IX (Compound IX) 3 mg in postmenopausal female subjects with SUI. However, data presented herein were from subjects seen at 3 separate sites.
Described is the effect of 12 weeks of treatment of Compound IX on the number of stress urinary incontinence episodes/day as assessed by the 3 day voiding diary. See leaks/day data in Tables 2 (individual subject data from all 3 sites), Tables 4-6 (mean stress leaks for sites 1, 2, and 3, respectively), and FIG. 10 (mean stress leaks/day across all sites). Further, see Table 3 for the durability of this response in subjects assessed at 16, 24, 32 and 40 weeks (and their pad weights).
Subjects were instructed to take one 3 mg softgel capsule per day by mouth, without regard to food intake.
This is a proof of concept feasibility study, so no power calculation was needed. Therefore, up to 35 subjects meeting inclusion/exclusion criteria would be recruited until the enrolled subjects have completed treatment. Further, durability was assessed at 40 weeks. Descriptive statistics were performed to explore changes in primary and secondary outcomes measures between baseline and weeks 12 (end of treatment) or 40 (durability). The primary efficacy measure was a reduction in the number of stress incontinence episodes/day. […] Safety will be determined by the number and type of adverse events reported during treatment, but is reported here from historical data from other clinical trials. Various imputation methods may be explored.
Change in frequency of daily stress urinary incontinence episodes from Baseline to Week 12 and durability at 40 weeks (28 weeks after Compound IX treatment is discontinued).
The data were collected from first 18 patients at 12 weeks and are derived from number of stress leaks reported by subjects in a 3 day voiding diary. […] Table 3 provides durability data of Compound IX for 18 patients and depicts that, for the first 9 subjects, this response was durable out to 40 weeks, i.e., 28 weeks (7 months) after treatment with Compound IX was discontinued. Data collection and analysis is ongoing.

Assay [2] deals with levator ani muscle. In words: Levator ani muscle weight in castrated rats treated subcutaneously for 14 days. The assay is classed as in vivo, rat. Conditions: castrated Sprague Dawley rats, subcutaneous, 3 mg/day. The text has this: At sacrifice, organs were weighed and expressed as raw organ weights. Values are expressed as average±S.D. Increased size and strength of pelvic floor muscles is one mechanism by which SARMs are believed to affect UI.
At sacrifice, organs were weighed and expressed as raw organ weights. Values are expressed as average±S.D.

Assay [3] deals with postmenopausal women with SUI. In words: Proof of concept clinical study: 24 hour pad weight test. The assay is classed as in vivo, human. Conditions: for Mean Pad Weights % Reduction: week 12. The text has this:
Secondary Objectives: • To describe the effect of 12 weeks of treatment of Compound IX on the number of voids/day as assessed by the 3 days voiding diary. […] See Tables 2 (individual subject data) and Tables 4-6 (mean pad weight data for sites 1, 2, and 3, respectively), and FIG. 17 for mean and median reductions in pad weights from baseline to week 12 (across all sites). • To describe the effect of 12 weeks of treatment of Compound IX on SUI as assessed by the Urethral Pressure Profile (UPP). The UPP assessment was removed from the protocol because it is invasive and not standard of care. […] See summary data for all subjects across the 3 sites reported in Table 7 and FIGS. 13A and 13B. • Described is the effect of 12 weeks of treatment of Compound IX on subject reported impression of stress urinary incontinence severity as assessed by the Patient Global Impression of Severity Scale (PGI-S). See summary data for all subjects across the 3 sites reported in FIG. 12A. • Described is the effect of 12 weeks of treatment of Compound IX on subject reported impression of improvement as assessed by the Patient Global Impression of Improvement Scale (PGI-I). See summary data for all subjects across the 3 sites reported in FIG. 12B. • Described is the effect of 12 weeks of treatment of Compound IX on subject reported urogenital distress as assessed by the Urinary Distress Inventory Questionnaire (UDI-6). See summary data for all subjects across of 3 sites reported in Table 7 and FIG. 12C. • Described is the effect of 12 weeks of treatment of Compound IX on subject reported impact of urinary incontinence on daily life as assessed by the Incontinence Impact Questionnaire (IIQ-7). See summary data for all subjects across the 3 sites reported in Table 7 and FIG. 12D. • Described is the effect of 12 weeks of treatment of Compound IX on subject reported sexual function as indicated on the completion of the Female Sexual Function Index Questionnaire (FSFI). See summary data for all subjects across the 3 sites reported in Table 7 and FIG. 15. • Described is the effect of 12 weeks of treatment of Compound IX on pelvic floor muscles as measured by MRI. See FIG. 11 wherein the pelvic MRI for one representative subject on trial is reported at baseline and at 12 weeks, FIG. 16 wherein the pelvic MRI's for three representative subjects on trial are reported at baseline and at 12 weeks, and Example 19 and Table 13 which provide individual measurements of levator ani thickness, inner and outer diameter of the urethra, and endometrial thickness, and mean changes in the same from baseline to week 12.
Reported herein are data for the first 18 patients at 12 weeks for the secondary endpoints of 24 hour pad weight test (Tables 2 and 4-6, and FIG. 17) and change in levator ani muscle, urethra, and endometrium for a selected subjects from Baseline to Week 12 as measured by quantitative MRI (FIGS. 11 and 16, Table 13 and Example 19). Data collection/analysis for these and additional secondary endpoints such as frequency of daily voids, urine volume per void, and bladder stress test is still ongoing.
Overall, the median pad weight decreased by 78%, from 31.07 grams at baseline to 6.97 grams at week 12; whereas mean pad weights decreased by 71% from 74.26 grams at baseline to 21.4 grams at week 12.

Values joined by “and” are separate entries in the source; they are usually repeats but may differ in a detail not shown here. Equal values may be shown once.

With `C[C@](O)(COc1ccc(C#N)cc1)C(=O)Nc1ccc(C#N)c(C(F)(F)F)c1` [Compound IX, (S)—N-(4-Cyano-3-(trifluoromethyl)phenyl)-3-(4-cyanophenoxy)-2-hydroxy-2-methylpropanamide], the “mean stress leaks/day at 40 weeks” value in assay [1] (N=9, 7 months after discontinuation) was determined as 0.63 leaks/day. In addition, the “Stress Leaks % Reduction” value in assay [1] (Site 1 (n = 10), week 12) is 86%; in assay [1] (Site 2 (n = 5), week 12), 75%; in assay [1] (Site 3 (n = 2), week 12), 78%. For the same molecule, the “reduction of mean stress leaks/day from baseline to week 12” value in assay [1] (all sites, 18 patients) is on record as 81%. Further, the “mean stress leaks/day at week 12” value in assay [1] (all sites, 18 patients, baseline 5.17) is 1.0 leaks/day and 1.00 leaks/day. In assay [1] (individual patients, 3 mg/day p.o., week 12), the “Leaks/Day (Week 12), stress leaks” value was 2.33 leaks/day and 0 leaks/day (3×) and 1 leaks/day (2×) and 1.33 leaks/day (2×) and 0.33 leaks/day (3×) and 1.66 leaks/day and 1.30 leaks/day and .67 leaks/day and 2.3 leaks/day and .33 leaks/day and 3 leaks/day and 0.67 leaks/day. Besides, in assay [1] (individual patients, 4 weeks post-treatment), the “Durability of response: % Reduction in leaks/day Week 16” value is 77% and 100% (5×) and 60% and 50% and 92% and 89% and 79% and 78% and 64% and 65%. Further, the “Durability of response: % Reduction in leaks/day Week 24” value in assay [1] (individual patients, 12 weeks post-treatment) is 69% and 100% (6×) and 70% and 42% and 95% and 10% and 57% and 78% and 50% and 60%. For the same molecule, in assay [1] (individual patients, 20 weeks post-treatment), the “Durability of response: % Reduction in leaks/day Week 32” value was 54% and 95% and 100% (3×) and 17% and 50% and 36% and 55% and 93%. Besides, the “Durability of response: % Reduction in leaks/day Week 40” value in assay [1] (individual patients, 28 weeks post-treatment) was 69% and 100% (5×) and 80% and 42% and 72%. In addition, the “patients who were responders (50% or greater reduction in stress leaks/day)” value in assay [1] (week 12, 18 patients) was “all patients were responders and All 18 patients were responders and All 18 subjects and all 18 subjects and 18 of 18”. Besides, the “levator ani muscle weight” value in assay [2] was “elicits hypertrophy of the levator ani muscle”. Further, the “Mean Pad Weights % Reduction” value came to 77% in assay [3] (Site 1 (n = 10)), 66% in assay [3] (Site 2 (n = 5)) and 74% in assay [3] (Site 3 (n = 2)). Also, the “decrease of mean pad weight at week 12” value in assay [3] (all sites) is 71% and 78%. Also, the “decrease of median pad weight at week 12” value in assay [3] (all sites) is 78% and 71%. Further, the “median pad weight at week 12” value in assay [3] (baseline 31.07 grams) is listed as 6.97 grams. Besides, the “mean pad weight at week 12” value in assay [3] (baseline 74.26 grams) is on record as 21.4 grams. The “Pad Weights at Week 12” value in assay [3] (individual patients, 3 mg/day p.o., 24 hour pad weight) is 7.31 grams and 7.74 grams and 4.54 grams and 26.93 grams and 3.58 grams and −2.3 grams and 204.4 grams and 14.3 grams and 10.1 grams and 29 grams and 6.9 grams and 5.63 grams and 3.9 grams and 6.13 grams and 7.04 grams and 37.27 grams and 6.48 grams and 6.71 grams. Also, in assay [3] (individual patients, week 12 vs baseline), the “% Reduction in pad weight (Week 12)” value is 88% and 55% and 52% and 45% and 98% (2×) and “126%” and 51% and 82% and 75% and 81% and 91% (2×) and 59% and 80% and 27%.
